# Measured values: PubChem BioAssay (NCI)
#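 Interpolation was linear, between the two tested concentrations surrounding the appropriate level; five concentrations were tested over 48 hours in 96-well plates. TGI marks complete inhibition of growth.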
# Tests used:
# Assay in all cases: NCI anticancer screen, dose series, 48 h
# TK-10 renal = test system: TK-10 renal
# M14 melanoma = test system: M14 melanoma
# SF-268 CNS = test system: SF-268 CNS
# LOX IMVI melanoma = test system: LOX IMVI melanoma
# SN12C renal = test system: SN12C renal
# CAKI-1 renal = test system: CAKI-1 renal
# MDA-N = test system: MDA-N
# SF-539 CNS = test system: SF-539 CNS
# HS 578T breast = test system: HS 578T breast
# HL-60(TB) leukemia = test system: HL-60(TB) leukemia
# COLO 205 colon = test system: COLO 205 colon
# SK-MEL-28 melanoma = test system: SK-MEL-28 melanoma
# SNB-75 CNS = test system: SNB-75 CNS
# SK-OV-3 ovarian = test system: SK-OV-3 ovarian
# HCT-15 colon = test system: HCT-15 colon
# SNB-19 CNS = test system: SNB-19 CNS
# BT-549 breast = test system: BT-549 breast
# U251 CNS = test system: U251 CNS
# A549 NSCLC = test system: A549 NSCLC
# SK-MEL-2 melanoma = test system: SK-MEL-2 melanoma
# OVCAR-8 ovarian = test system: OVCAR-8 ovarian
# SK-MEL-5 melanoma = test system: SK-MEL-5 melanoma
# NCI-H23 lung = test system: NCI-H23 lung
# HCT-116 colon = test system: HCT-116 colon
# UACC-257 melanoma = test system: UACC-257 melanoma
# IGROV1 ovarian = test system: IGROV1 ovarian
# MDA-MB-435 = test system: MDA-MB-435
# SW-620 colon = test system: SW-620 colon
# PC-3 prostate = test system: PC-3 prostate
# HCC-2998 colon = test system: HCC-2998 colon
# SR leukemia = test system: SR leukemia
# T-47D breast = test system: T-47D breast
# A498 renal = test system: A498 renal
# EKVX NSCLC = test system: EKVX NSCLC
# 786-0 renal = test system: 786-0 renal
# RXF 393 renal = test system: RXF 393 renal
# HT29 colon = test system: HT29 colon
# NCI/ADR-RES ovarian = test system: NCI/ADR-RES ovarian
# ACHN renal = test system: ACHN renal
# OVCAR-5 ovarian = test system: OVCAR-5 ovarian
compound,measurement,setting,value
CCOC(=O)C(NC(=O)Nc1ccc(Cl)cc1)(OC)C(F)(F)F (stereo not given),TGI,TK-10 renal,> 100 µM
same,TGI,M14 melanoma,> 100 µM
same,TGI,SF-268 CNS,> 100 µM
same,TGI,LOX IMVI melanoma,> 100 µM
same,TGI,SN12C renal,> 100 µM
same,TGI,CAKI-1 renal,> 100 µM
same,TGI,MDA-N,> 100 µM
same,TGI,SF-539 CNS,> 100 µM
same,TGI,HS 578T breast,> 100 µM
same,TGI,HL-60(TB) leukemia,> 100 µM
same,TGI,COLO 205 colon,> 100 µM
same,TGI,SK-MEL-28 melanoma,> 100 µM
same,TGI,SNB-75 CNS,> 100 µM
same,TGI,SK-OV-3 ovarian,> 100 µM
same,TGI,HCT-15 colon,> 100 µM
same,TGI,SNB-19 CNS,> 100 µM
same,TGI,BT-549 breast,> 100 µM
same,TGI,U251 CNS,> 100 µM
same,TGI,A549 NSCLC,> 100 µM
same,TGI,SK-MEL-2 melanoma,64.8 µM
same,TGI,OVCAR-8 ovarian,> 100 µM
same,TGI,SK-MEL-5 melanoma,> 100 µM
same,TGI,NCI-H23 lung,> 100 µM
same,TGI,HCT-116 colon,> 100 µM
same,TGI,UACC-257 melanoma,> 100 µM
same,TGI,IGROV1 ovarian,> 100 µM
same,TGI,MDA-MB-435,> 100 µM
same,TGI,SW-620 colon,> 100 µM
same,TGI,PC-3 prostate,> 100 µM
same,TGI,HCC-2998 colon,32.7 µM
same,TGI,SR leukemia,> 100 µM
same,TGI,T-47D breast,> 100 µM
same,TGI,A498 renal,> 100 µM
same,TGI,EKVX NSCLC,> 100 µM
same,TGI,786-0 renal,> 100 µM
same,TGI,RXF 393 renal,> 100 µM
same,TGI,HT29 colon,> 100 µM
same,TGI,NCI/ADR-RES ovarian,> 100 µM
same,TGI,ACHN renal,> 100 µM
same,TGI,OVCAR-5 ovarian,> 100 µM
